The record followed here is paper PMC10041525, “New Dual Inhibitors of Bacterial Topoisomerases with Broad-Spectrum Antibacterial Activity and In Vivo Efficacy against Vancomycin-Intermediate Staphylococcus aureus” (Journal of Medicinal Chemistry, 2023).

Several values for one entry are separate records, joined by “and”; a condition that tells them apart may be missing. Equal values may be shown once. Read-outs that look alike come from different tables or passages of the source.

In general, IC50 refers to the concentration needed to halve the response being measured.

For one assay, the system named is A. baumannii ATCC 17978. Kind of assay: MIC broth microdilution (CLSI). Type of assay: cell-based. The conditions noted are these: Acinetobacter baumannii, ATCC17978. The method in brief: (§1)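 Cation-adjusted Mueller Hinton broth 2 microdilution, 5 × 10^4 cells per well in 100 μL, three parallel replicates, plates bagged to limit evaporation; growth read as OD600 after incubation.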
(In general: In broth dilution the organism is exposed to a series of concentrations in liquid medium.)

The next assay concerns S. aureus ATCC 29213. Kind of assay: MIC broth microdilution (CLSI). It is filed as cell-based. The conditions noted are these: Staphylococcus aureus, ATCC29213. The method in brief:
as §1

A further assay deals with E. faecium ATCC 700221. Briefly: MIC broth microdilution (CLSI). The following applies: Enterococcus faecium, ATCC700221; read-out: MIC. Type of assay: cell-based.
Assay [1] concerns S. aureus (MRSA) ATCC 43300. Kind of assay: MIC broth microdilution (CLSI). It is filed as cell-based. The following applies: Staphylococcus aureus. A digest of the protocol: (§2)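 Serial twofold broth microdilution per CLSI in cation-adjusted Mueller Hinton broth 2, with 5 × 10^4 bacterial cells per well in 100 μL. Plates were shaken at 150 rpm, 37 °C, for 18 h, then read at OD600. MIC was the concentration where the mean OD600 increment of triplicates stayed below 1.5-fold background.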

The next assay concerns E. coli ATCC 25922. Kind of assay: MIC broth microdilution (CLSI). Type of assay: cell-based. The conditions noted are these: Escherichia coli, ATCC25922; read-out: MIC. A digest of the protocol: as §2
Assay [2] relates to Enterobacter cloacae spp. cloacae ATCC 13047. Briefly: MIC broth microdilution (CLSI). The conditions noted are these: Enterobacter cloacae, ATCC13047; read-out: MIC. Type of assay: cell-based. A digest of the protocol:
as §2

In another assay the test system is K. pneumoniae ATCC 10031. Briefly: MIC broth microdilution (CLSI). It is filed as cell-based. The method in brief: as §2
In assay [3] the test system is S. aureus (VISA) ATCC 700699. Briefly: MIC broth microdilution (CLSI). Type of assay: cell-based. The following applies: Staphylococcus aureus; read-out: MIC. A digest of the protocol: as §2
Another assay relates to P. aeruginosa ATCC 27853. Kind of assay: MIC broth microdilution (CLSI). It is filed as cell-based. The conditions noted are these: Pseudomonas aeruginosa, ATCC27853; read-out: MIC. A digest of the protocol: as §2
For the next assay, the target named is T1, topo IV from E. coli (Escherichia coli, UniProt P20083).
T1 construct: purchased Inspiralis
Kind of assay: relaxation HTS plate assay. Type of assay: biochemical. The following applies: read-out: IC50. The method in brief: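 E. coli gyrase tested by supercoiling and topo IV by relaxation in high-throughput plate format. IC50 from seven inhibitor concentrations; mean of three independent measurements.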

Assay [4] relates to Enterococcus faecalis ATCC 29212. Kind of assay: MIC broth microdilution (CLSI). Type of assay: cell-based, E. faecalis. The conditions noted are these: Enterococcus faecalis, ATCC29212; read-out: MIC.
[5] abbreviates: read-out: MIC [µg/mL] (A. baumannii ATCC 17978).
[6] abbreviates: read-out: MIC [µg/mL](S. aureus ATCC 29213).
The mark [7] stands for this setting: read-out: MIC [µg/mL](S. aureus MRSA ATCC4330).
[8] abbreviates: Klebsiella pneumoniae, ATCC10031, read-out: MIC.

T1 sequence (P0AFI2 whole entry): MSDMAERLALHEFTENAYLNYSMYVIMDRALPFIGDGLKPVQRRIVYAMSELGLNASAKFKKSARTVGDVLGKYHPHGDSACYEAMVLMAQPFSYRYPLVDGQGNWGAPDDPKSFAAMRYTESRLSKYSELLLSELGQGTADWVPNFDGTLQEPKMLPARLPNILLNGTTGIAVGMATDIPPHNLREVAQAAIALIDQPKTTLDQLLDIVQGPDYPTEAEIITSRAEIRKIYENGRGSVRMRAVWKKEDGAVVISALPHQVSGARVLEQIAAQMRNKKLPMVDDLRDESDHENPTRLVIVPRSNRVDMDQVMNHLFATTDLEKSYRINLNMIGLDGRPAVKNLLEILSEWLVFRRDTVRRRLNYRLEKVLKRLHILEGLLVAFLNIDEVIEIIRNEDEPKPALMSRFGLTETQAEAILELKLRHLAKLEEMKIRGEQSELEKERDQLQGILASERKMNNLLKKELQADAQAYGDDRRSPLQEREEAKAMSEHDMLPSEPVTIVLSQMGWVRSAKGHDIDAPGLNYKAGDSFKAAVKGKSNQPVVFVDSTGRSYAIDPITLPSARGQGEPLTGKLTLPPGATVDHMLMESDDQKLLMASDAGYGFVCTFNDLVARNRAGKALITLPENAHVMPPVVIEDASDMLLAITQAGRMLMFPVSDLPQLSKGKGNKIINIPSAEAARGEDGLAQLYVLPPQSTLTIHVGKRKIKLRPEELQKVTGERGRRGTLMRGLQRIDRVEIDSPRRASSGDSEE
T1 sequence (P20083 whole entry): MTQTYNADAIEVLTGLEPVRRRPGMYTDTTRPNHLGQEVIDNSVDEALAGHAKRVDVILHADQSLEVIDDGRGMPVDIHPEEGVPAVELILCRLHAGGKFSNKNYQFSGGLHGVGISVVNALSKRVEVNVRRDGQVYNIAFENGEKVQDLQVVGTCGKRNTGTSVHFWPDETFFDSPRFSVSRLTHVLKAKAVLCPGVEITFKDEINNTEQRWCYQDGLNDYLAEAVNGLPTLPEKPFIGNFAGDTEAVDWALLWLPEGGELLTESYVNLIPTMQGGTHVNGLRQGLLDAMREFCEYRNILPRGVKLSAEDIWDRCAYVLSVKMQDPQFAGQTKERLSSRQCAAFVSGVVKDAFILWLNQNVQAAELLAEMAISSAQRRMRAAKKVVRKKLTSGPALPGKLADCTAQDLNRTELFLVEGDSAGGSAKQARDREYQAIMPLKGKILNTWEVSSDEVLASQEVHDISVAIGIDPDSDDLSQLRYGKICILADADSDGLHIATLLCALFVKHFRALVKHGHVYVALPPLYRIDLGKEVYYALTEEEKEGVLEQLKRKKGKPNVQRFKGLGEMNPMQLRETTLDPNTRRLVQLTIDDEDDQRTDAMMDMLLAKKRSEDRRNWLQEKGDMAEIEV

For the molecule `COCC1CCCN1c1cc(C(=O)O)cc2sc(NC(=O)c3[nH]c(C)c(Cl)c3Cl)nc12` (stereo not shown) [7n, 2-(3,4-Dichloro-5-methyl-1H-pyrrole-2-carboxamido)-4-(2-(methoxymethyl)pyrrolidin-1-yl)benzo[d]thiazole-6-carboxylic Acid], the MIC in the assay with A. baumannii ATCC 17978 (read-out: MIC) was 8 µg/mL; in the assay with A. baumannii ATCC 17978 (setting [5]) it was 8 µg/mL; in the assay on S. aureus ATCC 29213 (read-out: MIC), 0.0625 µg/mL; in the assay on S. aureus ATCC 29213 (setting [6]), 0.0625 µg/mL; in the assay on E. faecium ATCC 700221, less than 0.0312 µg/mL; in assay [1] (read-out: MIC), 0.0625 µg/mL. Further, the MIC in [1] (setting [7]) was 0.0625 µg/mL; in the assay with E. coli ATCC 25922 it was 8 µg/mL; in assay [2] it was more than 64 µg/mL; in the assay with K. pneumoniae ATCC 10031 (setting [8]) it was 8 µg/mL; in [3], 0.0625 µg/mL; with P. aeruginosa ATCC 27853 it was 8 µg/mL. Moreover, in assay [4], the MIC is less than 0.0312 µg/mL. The IC50 on topo IV from E. coli was 210 ± 7 nM.
On to `COC[C@@H]1CCCN1c1cc(C(=O)O)cc2sc(NC(=O)c3[nH]c(C)c(Cl)c3Cl)nc12` [7o, (S)-2-(3,4-Dichloro-5-methyl-1H-pyrrole-2-carboxamido)-4-(2-(methoxymethyl)pyrrolidin-1-yl)benzo[d]thiazole-6-carboxylic Acid], for which the MIC in the assay with A. baumannii ATCC 17978 (read-out: MIC) was 16 µg/mL; with A. baumannii ATCC 17978 (setting [5]), 16 µg/mL; in the assay on S. aureus ATCC 29213 (read-out: MIC), 0.0625 µg/mL; in the assay with S. aureus ATCC 29213 (setting [6]), 0.0625 µg/mL; in the assay with E. faecium ATCC 700221, less than 0.0312 µg/mL; in [1] (read-out: MIC), 0.0625 µg/mL. Further, the MIC in assay [1] (setting [7]) is 0.0625 µg/mL; in the assay on E. coli ATCC 25922, 16 µg/mL; in assay [2], more than 64 µg/mL; in the assay with K. pneumoniae ATCC 10031 (setting [8]), 16 µg/mL; in assay [3], 0.0625 µg/mL; in the assay on P. aeruginosa ATCC 27853 it was 16 µg/mL. The MIC in [4] was less than 0.0312 µg/mL. Further, the IC50 on topo IV from E. coli is 280 ± 14 nM.
Consider `Cc1[nH]c(C(=O)Nc2nc3c(N4CCC(O)CC4)cc(C(=O)O)cc3s2)c(Cl)c1Cl` [7p, 2-(3,4-Dichloro-5-methyl-1H-pyrrole-2-carboxamido)-4-(4-hydroxypiperidin-1-yl)benzo[d]thiazole-6-carboxylic Acid], for which the MIC with A. baumannii ATCC 17978 (read-out: MIC) is more than 64 µg/mL; in the assay on A. baumannii ATCC 17978 (setting [5]) it was more than 64 µg/mL; with S. aureus ATCC 29213 (read-out: MIC), 4 µg/mL; in the assay on S. aureus ATCC 29213 (setting [6]), 4 µg/mL; in the assay with E. faecium ATCC 700221, less than 0.0312 µg/mL; in assay [1] (read-out: MIC), 4 µg/mL. The MIC was 4 µg/mL in [1] (setting [7]); more than 64 µg/mL in the assay on E. coli ATCC 25922; more than 64 µg/mL in [2]; 4 µg/mL in the assay with K. pneumoniae ATCC 10031; 4 µg/mL in the assay with K. pneumoniae ATCC 10031 (setting [8]); 0.5 µg/mL in assay [3]. Moreover, the MIC with P. aeruginosa ATCC 27853 is more than 64 µg/mL; in [4] it was less than 0.0312 µg/mL. For the same molecule, the half-maximal inhibitory concentration (IC50) at topo IV from E. coli amounted to 140 ± 3 nM.
Regarding `Cc1[nH]c(C(=O)Nc2nc3c(N4CCOCC4)cc(C(=O)O)cc3s2)cc1Cl` [16a, 2-(4-Chloro-5-methyl-1H-pyrrole-2-carboxamido)-4-morpholinobenzo[d]thiazole-6-carboxylic Acid], the MIC is more than 64 µg/mL in the assay with A. baumannii ATCC 17978 (read-out: MIC); more than 64 µg/mL in the assay on A. baumannii ATCC 17978 (setting [5]); 8 µg/mL with S. aureus ATCC 29213 (read-out: MIC); 8 µg/mL in the assay on S. aureus ATCC 29213 (setting [6]); 1 µg/mL in the assay with E. faecium ATCC 700221; 2 µg/mL in assay [1] (read-out: MIC). Moreover, the MIC was 2 µg/mL in assay [1] (setting [7]); more than 64 µg/mL in the assay with E. coli ATCC 25922; more than 64 µg/mL in assay [2]; 2 µg/mL in the assay on K. pneumoniae ATCC 10031; 2 µg/mL in the assay on K. pneumoniae ATCC 10031 (setting [8]); 0.5 µg/mL in assay [3]. Besides, the MIC in the assay on P. aeruginosa ATCC 27853 came out at 64 µg/mL; in [4], 1 µg/mL. Also, on topo IV from E. coli, the half-inhibitory concentration (IC50) is < 100 nM and 38 nM.
